Test results as given in publication PMC4319009, “Small Molecules Dorsomorphin and LDN-193189 Inhibit Myostatin/GDF8 Signaling and Promote Functional Myoblast Differentiation” (The Journal of Biological Chemistry, 2014).

Experiments:
ActRIIB = target: T1, ActRIIB (Homo sapiens, UniProt Q13705); assay: isothermal titration calorimetry; type: binding
T1 construct: gene ACVR2B; kinase domain residues 190-487, N-terminal His6 removed by TEV protease, vector pFB-LIC-Bse, baculovirus Sf9
Source text: isothermal titration calorimetry on ActRIIB

ActRIIA = target: T2, ActRIIA (Homo sapiens, UniProt P27037); assay: isothermal titration calorimetry; type: binding
T2 construct: gene ACVR2A; kinase domain residues 191-488, N-terminal His6 removed by TEV protease, vector pFB-LIC-Bse, baculovirus Sf9; two molecules per asymmetric unit
T2 sequence (P27037 191-488): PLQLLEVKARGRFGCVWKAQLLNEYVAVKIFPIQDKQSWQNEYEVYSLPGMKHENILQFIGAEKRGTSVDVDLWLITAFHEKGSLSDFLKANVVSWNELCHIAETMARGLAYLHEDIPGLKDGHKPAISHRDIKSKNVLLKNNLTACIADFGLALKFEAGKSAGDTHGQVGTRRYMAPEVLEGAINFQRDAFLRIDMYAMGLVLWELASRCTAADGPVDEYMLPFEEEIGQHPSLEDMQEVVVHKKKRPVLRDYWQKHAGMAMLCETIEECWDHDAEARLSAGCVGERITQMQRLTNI
Source text: isothermal titration calorimetry on ActRIIA

T1 sequence (Q13705 190-487): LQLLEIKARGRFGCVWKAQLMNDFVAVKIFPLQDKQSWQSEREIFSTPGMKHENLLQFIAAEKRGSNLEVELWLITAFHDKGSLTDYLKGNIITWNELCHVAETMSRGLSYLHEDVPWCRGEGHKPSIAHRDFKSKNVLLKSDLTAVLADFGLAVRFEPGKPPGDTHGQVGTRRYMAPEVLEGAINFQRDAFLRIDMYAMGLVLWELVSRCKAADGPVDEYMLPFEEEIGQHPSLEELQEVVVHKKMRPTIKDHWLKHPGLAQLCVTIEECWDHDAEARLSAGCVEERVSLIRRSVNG

| Kd (ActRIIB) [µM] | Kd (ActRIIA) [µM] | SMILES |
| --- | --- | --- |
| 0.03 | 0.058 | c1cc(-c2cnn3cc(-c4ccc(OCCN5CCCCC5)cc4)cnc23)ccn1 [Dorsomorphin] |
| – | 0.014 | c1ccc2c(-c3cnn4cc(-c5ccc(N6CCNCC6)cc5)cnc34)ccnc2c1 [LDN-193189] |
